Measurements from patent publication US20050148523A1, “Method of treating HIV infection in atazanavir-resistant patients using a combination of atazanavir and another protease inhibitor” (priority 2003, published 2005).

Key:
[1] = test system: clinical isolates from patients on NFV regimens; settings: isolates containing D30N as the only primary PI mutation; cited from earlier work
[2] = test system: clinical isolates containing an I50L substitution (and their baseline isolates); experiment: PhenoSense phenotypic susceptibility of clinical isolates from ATV-treated patients who developed I50L; assay type: cell-based, HIV-1; settings: for Subceptibility, Fold Change in EC50 relative to reference strain: Subject 169, Week 114; for median increase in susceptibility from baseline: on emergence of I50L, n=4 to 15; for percentage of I50L isolates with susceptibility (FC) 0.4-fold or lower: relative to the reference strain
Excerpt: Study Population. Viral samples (baseline and on-treatment, where available) were obtained from patients who experienced virologic failure while enrolled in studies AI424-007/041 [12] (ATV+d4T and ddI), AI424-008/044 [13, 14] (ATV+d4T and 3TC) and AI424-034 [9] (ATV or EFV in combination with ZDV and 3TC). […] In general, virologic failure specimens were selected for further resistance evaluation only if they contained >1,000 copies/mL HIV-1 RNA and there was no indication that the specimen came from a patient at a time of transient non-adherence to study drug(s). […] For non-responders, samples from week 16 (or 24) were tested. Drug adherence was determined from pill counts of returned study medications at each scheduled visit.
(§1) Drug Susceptibility Assays. Clinical isolates were subjected to phenotypic (PhenoSense™) and genotypic (GeneSeq™) analysis by Virologic, Inc. as described elsewhere.

[3] = test system: HIV-1 variants containing I50V; settings: in vitro; cited from earlier work
[4] = test system: recombinant HIV-1 viruses (NL4-3, RF, LAI) in MT-2 cells; experiment: MT-2 cell susceptibility assay of recombinant viruses; assay type: cell-based; settings: all three viral strains, I50L or I50L/A71V introduced by site-directed mutagenesis
Method: Cells and Viruses. MT-2 cells, HIV-1 RF, HIV1-LAI, and the HIV-1 NL4-3 proviral clones were obtained through the AIDS Research and Reference Reagent Program, National Institutes of Health. MT-2 cells were cultured in RPMI 1640 medium supplemented with 10% fetal bovine serum, 2 mM L-glutamine, and 10 mM Hepes buffer. HIV-1 viruses were generated by transient transfection of the proviral DNA into Human Embryonic Kidney 293 cells using Lipofectamine reagents (Gibco BRL). The viruses were harvested 72 hr post-transfection, amplified in MT-2 cells, and titered in the same cells using a virus yield assay.
Recombinant HIV-1 Variants and Chimeric NL4-3 Proviral Clones. HIV-1 strains with defined substitutions in the protease gene were generated by QuikChange® site-directed mutagenesis as recommended by the manufacturer (Stratagene). Recombinant NL4-3 and LAI proviral clones containing the wild-type and mutant protease genes from RF and clinical isolates were constructed by replacing the SseI/ApaI fragment of pNL4-3 with the appropriate SseI/ApaI protease fragments.
Recombinant viruses (generated separately from those made for PhenoSense assays) were tested in an MT-2 cell susceptibility assay at Bristol Myers Squibb. MT-2 cells were infected with recombinant viruses at a multiplicity of infection (MOI) of 0.005 50% tissue culture infective doses (TCID50)/cell followed by incubation in the presence or absence of serially diluted protease inhibitors for 4 to 7 days. Virus yields were quantified using a RT assay as previously described. The results from at least four independent experiments were used to calculate the EC50.

[5] = test system: clinical isolates containing a D30N substitution; experiment: PhenoSense phenotypic susceptibility of clinical isolates containing D30N; assay type: cell-based, HIV-1; settings: 75 D30N containing isolates, FIG. 3
Method: as §1
Comparative Studies of I50L and D30N Containing Viruses. […] Comparative studies were performed on the 18 phenotyped viruses containing an I50L and 75 clinical isolates containing a D30N substitution without evidence of cross-resistance (FC≧2.5) to other PIs.

[6] = test system: clinical isolates containing an I50V; experiment: PhenoSense phenotypic susceptibility of clinical isolates containing I50V; assay type: cell-based, HIV-1
Excerpt: as §1
Because an I50V substitution is a signature mutation sometimes associated with APV resistance, the cross-resistance relationship between ATV and APV was further examined.

CC(C)(C)NC(=O)[C@@H]1C[C@@H]2CCCC[C@@H]2CN1C[C@@H](O)[C@H](Cc1ccccc1)NC(=O)[C@H](CC(N)=O)NC(=O)c1ccc2ccccc2n1 [SQV, saquinavir]
susceptibility [1]: remained susceptible | Susceptibility, Fold Change in EC50 relative to reference strain ([2]; Subject 076, Week 80): 0.3 Fold Change | Susceptibility, Fold Change in EC50 relative to reference strain ([2]; Subject 076, Week 92): 0.5 Fold Change | Susceptibility, Fold Change in EC50 relative to reference strain ([2]; Subject 100, Week 1.7): 1.3 Fold Change | Susceptibility, Fold Change in EC50 relative to reference strain ([2]; Subject 169, Week 0.1): 0.8 Fold Change | Susceptibility, Fold Change in EC50 relative to reference strain ([2]; Subject 169, Week 90): 0.5 Fold Change | Susceptibility, Fold Change in EC50 relative to reference strain ([2]; Subject 169, Week 102): 0.4 Fold Change | Subceptibility, Fold Change in EC50 relative to reference strain [2]: 0.5 Fold Change | Susceptibility, Fold Change in EC50 relative to reference strain ([2]; Subject 362, Week 0.1): 1.0 Fold Change | Susceptibility, Fold Change in EC50 relative to reference strain ([2]; Subject 362, Week 108): 0.5 Fold Change | percentage of baseline isolates exhibiting a FC≦0.4 [2]: 10% | median increase in susceptibility from baseline [2]: 2.0 fold | percentage of I50L isolates with susceptibility (FC) 0.4-fold or lower [2]: 72% | median FC ([2]; {}): ≤ 0.4 | effect of I50V on susceptibility [3]: increased susceptibility | change in susceptibility [4]: enhanced susceptibility

CC(C)CN(C[C@@H](O)[C@H](Cc1ccccc1)NC(=O)O[C@H]1CCOC1)S(=O)(=O)c1ccc(N)cc1 [APV, amprenavir]
susceptibility [1]: remained susceptible | cross-resistance ([2]; I50L containing clinical isolates): none of the I50L containing clinical isolates showed evidence of APV resistance | Susceptibility, Fold Change in EC50 relative to reference strain ([2]; Isolate with I50L 1): 0.3 Fold Change | Susceptibility, Fold Change in EC50 relative to reference strain ([2]; Isolate with I50L 2): 0.6 Fold Change | Susceptibility, Fold Change in EC50 relative to reference strain ([2]; Isolate with I50L 3): 0.5 Fold Change | Susceptibility, Fold Change in EC50 relative to reference strain ([2]; Isolate with I50L 4): 0.4 Fold Change | Susceptibility, Fold Change in EC50 relative to reference strain ([2]; Isolate with I50L 5): 0.6 Fold Change | Susceptibility, Fold Change in EC50 relative to reference strain ([2]; Isolate with I50L 6): 0.4 Fold Change | Susceptibility, Fold Change in EC50 relative to reference strain ([2]; Isolate with I50L 7): 0.6 Fold Change | Susceptibility, Fold Change in EC50 relative to reference strain ([2]; Isolate with I50L 8): 0.8 Fold Change | Susceptibility, Fold Change in EC50 relative to reference strain ([2]; Isolate with I50L 9): 0.6 Fold Change | Susceptibility, Fold Change in EC50 relative to reference strain ([2]; Isolate with I50L 10): 0.3 Fold Change | Susceptibility, Fold Change in EC50 relative to reference strain ([2]; Isolate with I50L 11): 0.4 Fold Change | Susceptibility, Fold Change in EC50 relative to reference strain ([2]; Isolate with I50L 12): 0.7 Fold Change | Susceptibility, Fold Change in EC50 relative to reference strain ([2]; Isolate with I50L 13): 0.7 Fold Change | Susceptibility, Fold Change in EC50 relative to reference strain ([2]; Isolate with I50L 14): 0.8 Fold Change | Susceptibility, Fold Change in EC50 relative to reference strain ([2]; Isolate with I50L 15): 0.9 Fold Change | Susceptibility, Fold Change in EC50 relative to reference strain ([2]; Isolate with I50L 16): 0.4 Fold Change | Susceptibility, Fold Change in EC50 relative to reference strain ([2]; Subject 076, Week 80): 0.6 Fold Change | Susceptibility, Fold Change in EC50 relative to reference strain ([2]; Subject 076, Week 92): 0.9 Fold Change | Susceptibility, Fold Change in EC50 relative to reference strain ([2]; Subject 100, Week 1.7): 1.5 Fold Change | Susceptibility, Fold Change in EC50 relative to reference strain ([2]; Subject 169, Week 0.1): 0.6 Fold Change | Susceptibility, Fold Change in EC50 relative to reference strain ([2]; Subject 169, Week 90): 0.7 Fold Change | Susceptibility, Fold Change in EC50 relative to reference strain ([2]; Subject 169, Week 102): 0.6 Fold Change | Subceptibility, Fold Change in EC50 relative to reference strain [2]: 1.2 Fold Change | Susceptibility, Fold Change in EC50 relative to reference strain ([2]; Subject 362, Week 0.1): 1.0 Fold Change | Susceptibility, Fold Change in EC50 relative to reference strain ([2]; Subject 362, Week 108): 1.1 Fold Change | percentage of baseline isolates exhibiting a FC≦0.4 [2]: 21% | median increase in susceptibility from baseline [2]: 1.5 fold | percentage of I50L isolates with susceptibility (FC) 0.4-fold or lower [2]: 39% | change in susceptibility [4]: enhanced susceptibility | median FC [5]: 0.6 | Susceptibility, Fold Change in EC50 relative to reference strain ([6]; Isolate with I50V 1): 3.5 Fold Change | Susceptibility, Fold Change in EC50 relative to reference strain ([6]; Isolate with I50V 2): 4.2 Fold Change | Susceptibility, Fold Change in EC50 relative to reference strain ([6]; Isolate with I50V 3): 8.0 Fold Change | Susceptibility, Fold Change in EC50 relative to reference strain ([6]; Isolate with I50V 4): 9.4 Fold Change | Susceptibility, Fold Change in EC50 relative to reference strain ([6]; Isolate with I50V 5): 11 Fold Change | Susceptibility, Fold Change in EC50 relative to reference strain ([6]; Isolate with I50V 6): 11 Fold Change | Susceptibility, Fold Change in EC50 relative to reference strain ([6]; Isolate with I50V 7): 12 Fold Change | Susceptibility, Fold Change in EC50 relative to reference strain ([6]; Isolate with I50V 8): 14 Fold Change
